Molecules are shown by their SMILES.

The IC50 is the point on the concentration scale where inhibition reaches its midpoint. A higher IC50 goes with weaker potency in that assay.

The target in this assay is T1, cKIT (Homo sapiens, UniProt P10721).
T1 construct: GST
Kind of assay: HTRF in vitro kinase assay, cKIT. The note with it: 1 mM ATP. The assay is classed as biochemical. The method, then: To determine the activity of the various kinases, a homogenous time-resolved fluorescence (HTRF) in vitro kinase assay was used. (Mathis, G., HTRF(R) Technology. J Biomol Screen, 1999. 4(6): p. 309-314; Alfred J. Kolb, Paul V. Kaplita, David J. Hayes, Young-Whan Park, Christine Pernell, John S. Major and Gerard Mathis, Drug Discovery Today, 1998, 3, 333-342.)
For example for KDR, cKIT, FLT1, CSF1R and FTL3, purified enzyme was mixed with 0.5 μM N-biotinylated substrate (Biotin-Ahx-[…]-amide (SEQ. ID. 1)), various concentrations of inhibitor in reaction buffer (50 mM HEPES, pH 7.1, 10 mM MgCl2, 2 mM MnCl2, 0.1% BSA and 1 mM DTT, 40 μL final volume), ATP (1 mM final conc.) in a black 384-well plate. After 60 minutes incubation at room temperature, the reaction was quenched by addition of a buffered EDTA solution (final approximate concentrations: 30 mM EDTA, 0.1% BSA, 0.1% Triton X-100 and 0.24M KF) and a solution of revelation agents (to give 0.084 ng/well streptavidin-XL-665 (Cis-Bio) and 6.5 ng/well antiphsophotyrosine mAb PT66-K Europium kryptate) was added to the reaction mixture. The quenched reaction was allowed to stand at room temperature for 3 hours and was then read in a time-resolved fluorescence detector (InVision, Perkin-Elmer) at 620 nm and 665 nm sequentially with excitation. The ratio between the signal of 620 nm and 665 nm was used in the calculation of the IC50.
A general note: In TR-FRET formats the signal depends on donor and acceptor labels being close together.

T1 sequence (P10721 544-976 limits assumed): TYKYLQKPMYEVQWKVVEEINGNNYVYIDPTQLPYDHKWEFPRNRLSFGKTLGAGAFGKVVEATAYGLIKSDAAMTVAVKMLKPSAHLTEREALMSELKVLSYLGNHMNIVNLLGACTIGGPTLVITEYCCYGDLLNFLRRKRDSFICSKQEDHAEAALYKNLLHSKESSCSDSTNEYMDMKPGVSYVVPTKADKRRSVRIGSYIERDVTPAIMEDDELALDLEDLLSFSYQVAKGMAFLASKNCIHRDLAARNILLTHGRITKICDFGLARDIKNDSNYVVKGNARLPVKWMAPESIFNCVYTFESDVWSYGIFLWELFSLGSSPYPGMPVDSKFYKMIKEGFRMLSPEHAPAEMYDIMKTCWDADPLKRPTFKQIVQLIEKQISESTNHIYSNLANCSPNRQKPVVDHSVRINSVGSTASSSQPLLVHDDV

`CNC(=O)c1cnc(N)c2c(-c3ccc(NC(=O)Nc4cccc(C)c4)cc3)csc12` [Example 2, 4-amino-N-methyl-3-(4-{[(3-methylphenyl)carbamoyl]amino}phenyl)thieno[3,2-c]pyridine-7-carboxamide] displayed an IC50 of 6 nM. That is a single-digit nanomolar value.
